From article PMC10618744 (Cancer Discovery, 2023)
pIC50: −log10 of the molar value.

Biological target: PRMT5 (protein arginine methyltransferase 5) (Homo sapiens, UniProt O14744)
Format: biochemical

Chain of PRMT5 (protein arginine methyltransferase 5) (O14744 2-637): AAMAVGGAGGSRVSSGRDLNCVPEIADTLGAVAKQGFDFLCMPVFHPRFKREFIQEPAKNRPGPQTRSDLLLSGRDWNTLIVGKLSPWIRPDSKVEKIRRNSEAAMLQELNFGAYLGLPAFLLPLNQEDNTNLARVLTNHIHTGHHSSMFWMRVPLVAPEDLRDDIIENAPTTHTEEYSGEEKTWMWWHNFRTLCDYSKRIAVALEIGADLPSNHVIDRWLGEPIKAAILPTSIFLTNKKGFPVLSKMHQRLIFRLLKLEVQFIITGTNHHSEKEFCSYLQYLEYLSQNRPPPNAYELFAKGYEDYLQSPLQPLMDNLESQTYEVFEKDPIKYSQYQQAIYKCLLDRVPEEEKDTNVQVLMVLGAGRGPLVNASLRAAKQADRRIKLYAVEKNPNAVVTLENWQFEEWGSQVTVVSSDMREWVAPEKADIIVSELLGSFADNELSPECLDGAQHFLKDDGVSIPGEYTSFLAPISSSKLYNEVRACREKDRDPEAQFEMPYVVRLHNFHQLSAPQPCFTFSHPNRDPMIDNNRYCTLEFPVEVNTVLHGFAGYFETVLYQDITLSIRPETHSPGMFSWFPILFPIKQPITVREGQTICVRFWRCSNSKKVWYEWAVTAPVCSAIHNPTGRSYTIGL
Chain of PRMT5 (protein arginine methyltransferase 5) (Q9BQA1 2-342 partner): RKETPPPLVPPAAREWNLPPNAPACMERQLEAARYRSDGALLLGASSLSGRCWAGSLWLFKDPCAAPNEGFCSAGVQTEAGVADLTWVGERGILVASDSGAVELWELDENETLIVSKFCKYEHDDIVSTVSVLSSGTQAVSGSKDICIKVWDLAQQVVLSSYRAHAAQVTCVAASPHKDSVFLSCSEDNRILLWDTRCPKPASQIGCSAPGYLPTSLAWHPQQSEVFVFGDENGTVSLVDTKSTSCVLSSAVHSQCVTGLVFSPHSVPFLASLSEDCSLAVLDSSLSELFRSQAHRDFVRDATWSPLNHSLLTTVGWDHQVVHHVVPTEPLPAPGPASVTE

pIC50: ~5.70
Structure (SMILES): CSC[C@H]1O[C@@H](n2cnc3c(N)ncnc32)[C@H](O)[C@@H]1O [MTA]
